Assay results published in patent US20080125397A1, “2 (SULFONYL)ETHYL N,N,N',N' tetrakis(2 chloroethyl)phosphorodia” (Telik, Inc., priority 2006, published 2008).

Key:
Solubility in water = format: physicochemical
[1] = tested on: DLD-1 (colorectal adenocarcinoma); assay: Cytotoxicity/growth inhibition assay (CellTiter-Glo), DLD-1; format: cell-based, human
Method: (§1) The human cancer cell lines DLD-1 (colorectal adenocarcinoma), LNCaP (prostate carcinoma), and MIA PaCa-2 (pancreatic carcinoma) were obtained from the American Type Culture Collection, Manassas, Va., U.S.A., and MX-1 (breast carcinoma) from the National Cancer Institute, Bethesda, Md., U.S.A. The CellTiter-Glo assay kit was obtained from Promega Corporation, Madison, Wis., U.S.A. All products were used in accordance with manufacturer's directions. All assays were conducted in triplicate wells, with dimethyl sulfoxide (DMSO) solvent control. The extent of cell growth was expressed as a percentage of the signal from the solvent control wells.
(§2) Log-phase cells were trypsinized, collected by centrifugation, and resuspended in a small volume of fresh medium, and the density of viable cells was determined following Trypan Blue staining. Cells were diluted in fresh media (3×10^3 cells/mL for DLD-1, MIA PaCa-2, and MX-1, and 6×10^3 cells/mL for LNCaP), and added at 150 μL/well to 96-well plates, and incubated for several hours to allow attachment in the case of adherent cells. […] After incubation for 10 minutes at room temperature, and the plate was read with a luminometer.

[2] = tested on: LNCaP (prostate carcinoma); assay: Cytotoxicity/growth inhibition assay (CellTiter-Glo), LNCaP; format: cell-based, human
Method: as §1, §2

[3] = tested on: MIA PaCa-2 (pancreatic carcinoma); assay: Cytotoxicity/growth inhibition assay (CellTiter-Glo), MIA PaCa-2; format: cell-based, human
Method: as §1, §2

MX-1 (breast carcinoma) = assay: Cytotoxicity/growth inhibition assay (CellTiter-Glo), MX-1; format: cell-based, human
Method: as §1, §2

MX-1 tumor [4] = assay: MX-1 xenograft assay, intraperitoneal administration; format: in vivo, athymic nu/nu mice
Method: (§3) Female athymic nu/nu mice (Harlan, Indianapolis, Ind., U.S.A. or similar vendor), 6-8 weeks old (approximately 20 g), were implanted in the mammary fat pad of the right fore flank with 20-30 mg pieces of MX-1 tumor harvested from similar nu/nu mice that had previously been implanted with the MX-1 tumor. […] Groups of mice were treated with 2-({2-oxo-2-[(pyridin-3-ylmethyl)amino]ethyl}sulfonyl)ethyl N,N,N′,N′-tetrakis(2-chloroethyl)phosphorodiamidate hydrochloride at 50 and 100 mg/Kg, dissolved in aqueous 5% dextrose, by intraperitoneal injection once/day for 5 consecutive days, with vehicle control. Tumor mass, estimated from volume, was measured twice weekly; and tumor growth inhibition was measured when the average tumor mass in the control group first exceeded 2000 mg.

MX-1 tumor [5] = assay: MX-1 xenograft assay, oral administration; format: in vivo, athymic nu/nu mice; conditions: 150 mg/Kg by gavage once/day for 5 consecutive days
Method: as §3
(§4) A study similar to that described in In vivo Example 1 was performed using oral administration of 2-({2-oxo-2-[(pyridin-3-ylmethyl)amino]ethyl}sulfonyl)ethyl N,N,N′,N′-tetrakis(2-chloroethyl)phosphorodiamidate hydrochloride. A group of mice was treated with the compound, dissolved in water, at 150 mg/Kg by gavage once/day for 5 consecutive days (with vehicle control).

MX-1 tumor [6] = assay: MX-1 xenograft assay, intravenous administration; format: in vivo, athymic nu/nu mice
Method: as §3
as §4, with “intravenous” for “oral”, “aqueous 5% dextrose,” for “water,”, “40 and 80” for “150”, “tail vein injection” for “gavage”

MIA PaCa-2 tumor = assay: MiaPaCa-2 xenograft assay, intraperitoneal administration; format: in vivo, athymic nu/nu mice; conditions: 100 mg/Kg intraperitoneal once/day for 7 consecutive days
Method: Male athymic nu/nu mice, 6-8 weeks old (approximately 20 g), were implanted subcutaneously in the right fore flank with 20-30 mg pieces of MIA PaCa-2 tumor harvested from similar nu/nu mice that had previously been implanted with the MIA PaCa-2 tumor. […] A group of mice was treated with 2-({2-oxo-2-[(pyridin-3-ylmethyl)-amino]ethyl}sulfonyl)ethyl N,N,N′,N′-tetrakis(2-chloroethyl)phosphorodiamidate hydrochloride, dissolved in aqueous 5% dextrose, at 100 mg/Kg by intraperitoneal injection once/day for 7 consecutive days, with vehicle control.

[7] = Safety at the doses tested in the in vivo examples; set-up: species or system athymic nu/nu mice
Method: as §3, §4
A study similar to that described in In vivo Example 1 was performed using intravenous administration of 2-({2-oxo-2-[(pyridin-3-ylmethyl)amino]ethyl}sulfonyl)ethyl N,N,N′,N′-tetrakis(2-chloroethyl)phosphorodiamidate hydrochloride. […]

| Structure (SMILES) | solubility (Solubility in water) [µg/mL] | IC50 ([1]; Homo sapiens, 96 h, DLD-1, 4 days culture) [µM] | IC50 ([2]; Homo sapiens, 96 h, 4 days culture) [µM] | IC50 ([3]; Homo sapiens, 72 h, MIA PaCa-2, 3 days culture) [µM] | IC50 (MX-1 (breast carcinoma); Homo sapiens, 72 h, MX-1, 3 days culture) [µM] | inhibition of tumor growth compared to vehicle (MX-1 tumor [4]; 50 mg/Kg intraperitoneal once/day for 5 consecutive days) [%] | inhibition of tumor growth compared to vehicle (MX-1 tumor [4]; 100 mg/Kg intraperitoneal once/day for 5 consecutive days) [%] | inhibition of tumor growth compared to vehicle (MX-1 tumor [5]) [%] | inhibition of tumor growth compared to vehicle (MX-1 tumor [6]; 40 mg/Kg tail vein injection once/day for 5 consecutive days) [%] | inhibition of tumor growth compared to vehicle (MX-1 tumor [6]; 80 mg/Kg tail vein injection once/day for 5 consecutive days) [%] | inhibition of tumor growth compared to vehicle (MIA PaCa-2 tumor) [%] | potency compared with canfosfamide ([1]; DLD-1) | potency compared with canfosfamide [2] | potency compared with canfosfamide ([3]; MIA PaCa-2) | potency compared with canfosfamide (MX-1 (breast carcinoma); MX-1) | safety/toxicity [7] |
| --- | --- | --- | --- | --- | --- | --- | --- | --- | --- | --- | --- | --- | --- | --- | --- | --- |
| O=C(CS(=O)(=O)CCOP(=O)(N(CCCl)CCCl)N(CCCl)CCCl)NCc1cccnc1.O=C(O)C(O)C(O)C(=O)O [tartrate salt, 2-({2-Oxo-2-[(pyridin-3-ylmethyl)amino]ethyl}sulfonyl)ethyl N,N,N′,N′-tetrakis(2-chloroethyl)phosphorodiamidate tartrate] | ≥ 5000 | – | – | – | – | – | – | – | – | – | – | – | – | – | – | – |
| Cl.O=C(CS(=O)(=O)CCOP(=O)(N(CCCl)CCCl)N(CCCl)CCCl)NCc1cccnc1 [2-({2-Oxo-2-[(pyridin-3-ylmethyl)amino]ethyl}sulfonyl)ethyl N,N,N′,N′-tetrakis(2-chloroethyl)phosphorodiamidate hydrochloride] | ≥ 10000 | 12 | 67 | 16 | 22 | 28 | 95 | 67 | 39 | 98 | 92 | – | – | – | – | – |
| O=C(CS(=O)(=O)CCOP(=O)(N(CCCl)CCCl)N(CCCl)CCCl)NCc1cccnc1 [2-({2-oxo-2-[(pyridin-3-ylmethyl)amino]ethyl}sulfonyl)ethyl N,N,N′,N′-tetrakis(2-chloroethyl)phosphorodiamidate] | – | – | – | – | – | – | – | – | – | – | – | at least as potent as canfosfamide | at least as potent as canfosfamide | at least as potent as canfosfamide | at least as potent as canfosfamide | safe and non-toxic |
